The text below walks through data of US11959122B2.

For data set [1], the system named is microbial flora in the target watershed. The following applies: determined by EUCAST database; unit assumed; cited from earlier work.
For data set [2] the test system is unchanged. The experiment in a line: minimum inhibitory concentration (MIC) by EUCAST database and drug resistance prediction invalid concentration PNECr. The following applies: PNECR=MIC/AF, AF 10.
Excerpt: Minimum inhibitory concentration (MIC) of some antibiotics and drug resistance prediction invalid concentration (PNECr) of microbes
The subject of data set [3] is microbial flora in the target watershed (environmental microbes, resistant genes). The following applies: logistic model fitting of S against concentration; target solution DNA.
The conditions of data set [4]: buffer; cited from earlier work.

Turning to `O=C1CN(/N=C/c2ccc([N+](=O)[O-])o2)C(=O)N1` [Furantoin], the Observed MIC in data set [1] is 4000 mg/L. Also, in data set [2], the PNECr is 400. In the case of `CC1(C)S[C@@H]2[C@H](/N=C/N3CCCCCC3)C(=O)N2[C@H]1C(=O)O` [Messilinan], in data set [1], the Observed MIC is 64 mg/L. In data set [2], the PNECr is 6.4.

Turning to `CN(C)[C@@H]1C(O)=C(C(N)=O)C(=O)[C@@]2(O)C(O)=C3C(=O)c4c(O)cccc4[C@@](C)(O)[C@H]3[C@H](O)[C@@H]12` [Oxytetracycline], the Observed MIC in data set [1] is 125 mg/L. Further, the PNECr in data set [2] is recorded as 12.5. In the case of `CN(C)[C@@H]1C(O)=C(C(N)=O)C(=O)[C@@]2(O)C(O)=C3C(=O)c4c(O)cccc4[C@@](C)(O)[C@H]3C[C@@H]12` [Tetracycline], the “MSC value (antibiotic concentration at S=0)” value in data set [3] is approximately 11.39 µg/L.

As for `CS(=O)(=O)c1ccc([C@@H](O)[C@@H](CO)NC(=O)C(Cl)Cl)cc1` [Thiamphenicol], in data set [1], the Observed MIC is 500 mg/L. The PNECr in data set [2] is given as 50. Take `CC1(C)S[C@@H]2[C@H](NC(=O)[C@H](C(=O)O)c3ccsc3)C(=O)N2[C@H]1C(=O)O` [Ticarcillin]: the Observed MIC in data set [1] is 250 mg/L. Moreover, the PNECr in data set [2] was 25.

Regarding `N[C@@H]1[C@H]2CN(c3nc4c(cc3F)c(=O)c(C(=O)O)cn4-c3ccc(F)cc3F)C[C@@H]12` [Travafloxacin], in data set [1], the Observed MIC was 8 mg/L. Besides, the PNECr in data set [2] was 0.8. Regarding `CC[C@H]1OC(=O)C[C@@H](O)[C@H](C)[C@@H](O[C@@H]2O[C@H](C)[C@@H](O[C@H]3C[C@@](C)(O)[C@@H](O)[C@H](C)O3)[C@H](N(C)C)[C@H]2O)[C@@H](CC=O)C[C@@H](C)C(=O)/C=C/C(C)=C/[C@@H]1CO[C@@H]1O[C@H](C)[C@@H](O)[C@@H](OC)[C@H]1OC` [Tylosin], in data set [1], the Observed MIC was 2000 mg/L. Moreover, the PNECr in data set [2] was 200.

Turning to Bacitracin, the Observed MIC in data set [1] was 2000 mg/L. For the same compound, in data set [2], the PNECr is 200. Consider Capreomycin, for which the Observed MIC in data set [1] is 1000 mg/L. For the same compound, the PNECr in data set [2] is 100. Cefadroxil: in data set [1], the Observed MIC is 125 mg/L. In data set [2], the PNECr is listed as 12.5.

For Cefalexin, the Observed MIC in data set [1] is 250 mg/L. Also, in data set [2], the PNECr was 25.

For the compound Chloramphenicol, the Observed MIC in data set [1] is 125 mg/L. In addition, the PNECr in data set [2] is on record as 12.5. As to Colistin, the Observed MIC in data set [1] is 64 mg/L. For the same compound, the PNECr in data set [2] is 6.4. On to Dehydrated erythromycin, for which the “t1/2” value in data set [4] was 365 days. For Ethambutol, the Observed MIC in data set [1] was 1000 mg/L. In addition, in data set [2], the PNECr is on record as 100. For FLORFENICOL, in data set [1], the Observed MIC was 125 mg/L. In data set [2], the PNECr was 12.5.

For the compound Fosfomycin, in data set [1], the Observed MIC is 125 mg/L. In addition, the PNECr in data set [2] was 12.5. For Fusiform acid, the Observed MIC in data set [1] is 32 mg/L. Besides, in data set [2], the PNECr is 3.2. With Gentamicin, the Observed MIC in data set [1] was 16 mg/L. Besides, in data set [2], the PNECr is given as 1.6.

For Kanamycin, in data set [1], the Observed MIC was 125 mg/L. The PNECr in data set [2] is 12.5. Regarding Lincomycin, the Observed MIC in data set [1] was 500 mg/L. The PNECr in data set [2] is recorded as 50. With Linezolid, in data set [1], the Observed MIC was 125 mg/L. The PNECr in data set [2] is 12.5. Turning to Lolakabiv, the Observed MIC in data set [1] was 125 mg/L. The PNECr in data set [2] is listed as 12.5. With Mikafenjin, in data set [1], the Observed MIC was 4 mg/L. In data set [2], the PNECr is 0.4.

Nalidixic acid: the Observed MIC in data set [1] is 500 mg/L. For the same compound, the PNECr in data set [2] is on record as 50. On to Narasin, for which the Observed MIC in data set [1] is 125 mg/L. Further, the PNECr in data set [2] is given as 12.5. Neomycin: in data set [1], the Observed MIC is 125 mg/L. The PNECr in data set [2] was 12.5.

On to Pefloxacin, for which the Observed MIC in data set [1] was 4000 mg/L. For the same compound, the PNECr in data set [2] is 400. Turning to Penicillin, in data set [1], the Observed MIC is 4 mg/L. For the same compound, the PNECr in data set [2] was 0.4.

For the compound Quinupustine, the Observed MIC in data set [1] is 4 mg/L. The PNECr in data set [2] was 0.4.

Regarding Sparfloxacin, the Observed MIC in data set [1] was 500 mg/L. Also, the PNECr in data set [2] was 50. Consider Spiramycin, for which, in data set [1], the Observed MIC was 2000 mg/L. Also, the PNECr in data set [2] is 200. On to Streptomycin, for which the Observed MIC in data set [1] is 125 mg/L. The PNECr in data set [2] is 12.5.

On to Sulbactam sodium, for which the Observed MIC in data set [1] was 250 mg/L. The PNECr in data set [2] is given as 25.

For Sulfamethoxazole, the Observed MIC in data set [1] was 1000 mg/L. Also, the PNECr in data set [2] is listed as 100. With Teicoplanin, the Observed MIC in data set [1] is 1000 mg/L. In data set [2], the PNECr was 100.

In the case of Tiamulin, in data set [1], the Observed MIC is 500 mg/L. In data set [2], the PNECr is reported as 50. As for Tilmicosin, the Observed MIC in data set [1] is 250 mg/L. In addition, the PNECr in data set [2] is 25. For Vancomycin, the Observed MIC in data set [1] was 125 mg/L. In addition, the PNECr in data set [2] is reported as 12.5. In the case of Viomycin, the Observed MIC in data set [1] is 1000 mg/L. In addition, the PNECr in data set [2] is on record as 100. Regarding Virginiamycin, the Observed MIC in data set [1] was 250 mg/L. Further, the PNECr in data set [2] is on record as 25.
